Assay results published in patent publication US11253497B2, “Use of derivatives of polyunsaturated fatty acids as medicaments” (Lipopharma Therapeutics, S.L., priority 2009, dated 2022).

How the values were obtained:
[1] = system: apolipoprotein AI (apoA-I); test: Levels of apoA-I in SHR rats (RT-PCR); format: in vivo, rat; details: 200 mg/kg day p.o., 30 days, before treatment 100%
Procedure, shortened: (§1)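 SHR rats dosed orally at 200 mg/kg day for 30 days against water vehicle. At study end, blood pressure taken non-invasively by tail cuff and apoA-I assessed as gene expression by RT-PCR.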

[2] = Serum cholesterol, triglycerides and glucose in SHR rats (colorimetric); format: in vivo, rat; details: 200 mg/kg daily p.o., 28 days, untreated rats 100%
Procedure, shortened: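 SHR rats dosed p.o. at 200 mg/kg daily for 28 days; serum cholesterol, triglycerides and glucose measured colorimetrically. Values given as percent of untreated control rats, set at 100%.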

[3] = system: breast cancer cells MDA-MB-231; test: Growth of breast cancer cells MDA-MB-231; format: cell-based; details: 72 hours of incubation
Procedure, shortened: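 Human cancer cells in RPMI 1640 with 10% FBS at 37 °C, 5% CO2, exposed to D-PUFAs or PUFAs, then counted. Breast MDA-MB-231 cells run under the same conditions; values are means of three independent experiments.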

[4] = system: lung cancer cells A549; test: Growth of lung cancer cells A549 (IC50); format: cell-based, human; details: 72 hours of incubation
Procedure, shortened: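 Human A549 lung cancer cells in RPMI 1640 with 10% FBS at 37 °C, 5% CO2, exposed to D-PUFAs or PUFAs, then counted. values are means of three independent experiments.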

[5] = system: P19 cells; test: NMDA-induced neuronal death in P19 cells; format: cell-based; details: NMDA alone 100% death, control without NMDA 0%; negative values = proliferation
[6] = system: TNF-α; test: Production of TNF-α in serum of LPS-injected C57BL6/J mice; format: in vivo; details: LPS 20 μg i.p. (100%), 200 mg/kg p.o.
From the text: (§2) Cyclooxygenase (COX) is an enzyme that can bind to membranes, taking certain lipids from there and catalyze its conversion into molecules that can have inflammatory activity. The binding of this enzyme to membrane lipids is due in part to the membrane lipid structure. The increased activity of COX 1 and 2 isoforms has been associated with the etiopathology of a number of inflammatory diseases by […] arachidonic acid metabolism to produce pro-inflammatory lipid mediators. The D-PUFA compounds of the present invention produced a series of cellular signals that alter the metabolism of arachidonic acid and, as a result, they inhibit the activity and expression of COX in monocytes in culture (Table 14 and FIG. 5A). […] For this purpose, C57BL6/J mice were treated with the various derivatives (200 mg/kg, p.o.,) after inducing an inflammatory reaction in them by intraperitoneal injection of 20 μg of bacterial lipopolysaccharide (LPS).

[7] = Lamellar-to-hexagonal (HII) transition temperature in DEPE model membranes by Differential Scanning Calorimetry; format: physicochemical; details: for Transition temperature (lamellar to HII): DEPE (4 mM), 200 μM compound, series A, control 64.5
Procedure, shortened: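 Lamellar-to-HII transition temperature of DEPE membranes measured by differential scanning calorimetry, with DEPE:fatty acid at 10:1 mol:mol. Control membranes contained no fatty acid.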

[8] = system: Spontaneously Hypertensive Rats (SHR); test: Blood pressure of SHR rats (cuff-tail method); format: in vivo, rat; details: 200 mg/kg day p.o., 30 days, before treatment 214 mmHg
Procedure, shortened: as §1

[9] = system: brain cancer cell (glioma) U118; test: Brain cancer (glioma) U118 cell growth; format: cell-based; details: 72 hours of incubation
Procedure, shortened: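 Human cells in RPMI 1640 with 10% FBS at 37 °C, 5% CO2, exposed to D-PUFAs or PUFAs, then counted. glioma U118 cells run under the same conditions; values are means of three independent experiments.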

[10] = system: heterotrimeric Gi1 protein; test: Binding of heterotrimeric Gi1 protein to model membranes (centrifugation, immunoblotting); details: phosphatidylcholine:phosphatidylethanolamine (6:4) 2 mM phospholipid, 0.1 μM D-PUFA; control 100 ± 5; in % (unit assumed)
From the text: The net result is a regulation of cell signalling leading to the reversal of various pathological processes, as shown later. […] The Control is a sample of model membranes in the absence of fatty acids.

[11] = system: HepG2 cells; test: Liver cancer (HepG2 cells); format: cell-based; details: Homo sapiens, HepG2; 72 hours
Description: These charts show the antitumor efficacy of the compounds of this invention against the growth of breast cancer cells, brain (glioma), and lung cancer. […] The other experimental conditions are identical to those described in the preceding paragraph.
(§3) Overall, it may be seen that the series of compounds A and B are the best, so the effectiveness of these series against the development of leukaemia and liver cancer (Tables 9 and 10) was tested.

[12] = system: 3T3 cells; test: Percentage of total PUFAs in membranes of 3T3 cells treated with fatty acids (gas chromatography); format: cell-based; details: 100 μM, 48 hours, mean ± SEM of four measures, control 32.4 ± 2.1
From the text: To perform these experiments, membranes were extracted and total fatty acids were obtained by hydrolysis in basic medium. Methanolic bases of these fatty acids were quantified by gas chromatography. The data shown are averages of four independent measures of PUFA's mass divided by the total fatty acids and expressed as a percentage. It is also shown is standard error of the mean.
The control corresponds to a culture without the presence of added natural or synthetic fatty acids. Cells in their natural form present PUFAs in their membranes, but the presence in the medium of the D-PUFA molecules of the invention increases these levels of PUFAs in the cell membrane.

[13] = system: α-synuclein; test: Expression of α-synuclein in neuronal cultures (cells P19); format: cell-based; details: untreated cells 100%
[14] = system: Jurkat cells; test: Human leukaemia (Jurkat cells); format: cell-based; details: 72 hours
Description: as §3

[15] = system: COX-2; test: Expression of COX-2 in LPS-stimulated monocytes in culture; format: cell-based, human; details: positive control with LPS 100%
From the text: FIG. 5A also presents a drawing showing the COX-2/COX-1 relationship as % of control (Y axis) for the following compounds (X-axis): OOA (2-hydroxy-oleic acid), OLA (182A1), OALA (183A1), OGLA (183A2), OARA (204A1), OEPA (205A1), ODHA (226A1). […] The reduction of this factor is directly related to the anti-inflammatory medication. The compounds are the same as in the left pane.
as §2
Inhibition of COX-2 expression in monocytes. Percentages of inhibition (compared to the positive control in the presence of LPS, 100%) of COX-2 protein levels (expression) by the various fatty acid derivatives.

[16] = system: B6 healthy mice; test: Radial maze in control animals (B6 healthy mice); format: in vivo; details: 20 mg/kg daily po, 3 months
Description: To test the efficacy of the compounds of the present invention to induce neuroregeneration or inhibit neurodegeneration, an animal model of Alzheimer's disease was used. In this model mice develop neurodegeneration because they express a series of mutant proteins that lead to brain damage (Alzh mice). B6 mice were used as healthy animal controls. Both groups of animals were treated for a period of 3 months with vehicle (water) or with various D-PUFA (20 mg/kg, daily po) since they were an age of 3 months. To determine whether cognitive improvement occurred after treatment, animal behaviour was monitored in the radial maze. The animals are kept on restricted diet to have appetite. In a symmetrical 8-arm radial maze, visual marks were placed to facilitate the orientation of the animal and food (15 mg tablet) was put in four of the arms. The time each animal took to complete the exercise, and the number of errors, were measured using a camera attached to a computer system. In this sense, Alzheimer animals have values about 50% higher than healthy animals, both by the time it takes to perform the exercise and by the number of errors made (FIG. 4B). […] In this regard, the effectiveness of the compound 183B1, 205A1, 205B1, 226A1, 226 V1 was also tested, showing improvements in animals with Alzheimer's disease (times of 98, 92, 93, 86 and 89 seconds, respectively). On the other hand, it is also interesting that these same compounds (183B1, 205A1, 205B1, 226A1, 226B1 and 226V1) also produced reductions in the times taken to complete the experiment in control animals (B6 healthy mice) of 8s, 11s, 12s, 18s, 16s and 14s, respectively. Therefore, it may be concluded that these compounds have significant activity against neurodegeneration and in neuroregeneration.

Compound | Levels of apoA-I [1] [%] | Cholesterol in serum (top number) [2] [%] | Glucose in serum (bottom number) [2] [%] | Triglycerides in serum (central number) [2] [%] | IC50 ([3]; Homo sapiens, MDA-MB-231) [µM] | IC50 ([4]; Homo sapiens, A549) [µM] | Neuronal death (P19 cells) after treatment with NMDA [5] [%] | Production of TNF-α in serum [6] [%] | Transition temperature (lamellar to HII) [7] [°C] | Blood pressure [8] [mm Hg] | IC50 [9] [µM] | G protein binding [10] | IC50 [11] [µM] | Percentage of total PUFA [12] [%] | Expression of α-synuclein [13] [%] | IC50 ([14]; Homo sapiens, Jurkat) [µM] | COX-2 protein levels (expression), percentages of inhibition compared to positive control [15] [%] | further results
CCCCCC=CCC=CCC=CCCCC(O)C(=O)O (stereo not shown) [183A2, 2-hydroxy-6,9,12-octadecatrienoic acid] | 311 | 79 | 82 | 78 | 347 | 192 | −70 | 71 | 50.1 | 189 | 372 | 17 ± 357 | 380 | 44.0 ± 2.6 | 40 | 184 | 23 | –
CCCCCC=CCC=CCC=CCC=CCCC(O)C(=O)O (stereo not shown) [204A1, 2-hydroxy-5,8,11,14-eicosatetraenoic acid] | 131 | 72 | 85 | 77 | 381 | 243 | −70 | 24 | 49.3 | 205 | 197 | 385 ± 22 | 192 | 45.5 ± 2.9 | 41 | 62 | 17 | –
CC/C=C\C/C=C\C/C=C\C/C=C\C/C=C\C/C=C\CC(O)C(=O)[O-].[Na+] (stereo not shown) [226B1] | 333 | 59 | 81 | 62 | – | – | −222 | 83 | – | 186 | 196 | – | – | – | 31 | – | 37 | IC50 [3]: 195 µM; IC50 [4]: 198 µM; Temperature of lamellar-to-hexagonal transition ([7]; DEPE membranes, DEPE:D-PUFA 10:1 (mol:mol)): 45.1 °C; IC50 [14]: 175 µM; Reduction in the time taken to complete the experiment [16]: 16 s
